Assay results: patent publication US11013730B1, “Composition comprising selenazol or thiazalone derivatives and silver and method of treatment therewith” (Thioredoxin Systems AB, priority 2014, dated 2021)
≈ marks a conversion by molar mass, not a printed value. Where “and” joins values, the source holds several entries; their conditions need not be identical. Equal entries are not always repeated. Where two headings read alike, the source gives them in different places.

Experiments:
Helicobacter pylori = test: Bactericidal effects on Helicobacter pylori; assay type: cell-based; details: read-out: minimal bactericidal concentration (MBC)
Text: The inhibition of ebselen on H. pylori was therefore investigated. […] Taken together, our results strongly support that the inhibition of ebselen on these glutathione deficient bacteria is due to the oxidization of thioredoxin system by ebselen.

E. coli TrxR [1] = target: T1, E. coli TrxR (Escherichia coli, UniProt P0A9P4); test: E. coli TrxR inhibition, thioredoxin dependent DTNB reduction assay; assay type: biochemical
T1 sequence (P0A9P4 whole entry): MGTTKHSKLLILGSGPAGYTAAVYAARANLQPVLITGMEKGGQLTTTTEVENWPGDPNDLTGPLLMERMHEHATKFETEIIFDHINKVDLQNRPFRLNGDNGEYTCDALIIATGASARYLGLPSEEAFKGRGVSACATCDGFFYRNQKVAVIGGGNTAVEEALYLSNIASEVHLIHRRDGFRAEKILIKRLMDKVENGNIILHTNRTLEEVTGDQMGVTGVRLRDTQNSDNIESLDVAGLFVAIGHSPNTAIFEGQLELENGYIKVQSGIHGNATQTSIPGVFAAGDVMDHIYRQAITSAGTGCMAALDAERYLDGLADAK
Method: Further we examined the effect of ebselen in the reduction of disulfide by E. coli Trx and TrxR using both DTNB and insulin as substrates.
All the benzisoselenazol-3(2H)-one and bisbenzisoselenazol-3(2H)-one derivatives were tested as potential E. coli TrxR inhibitors by standard DTNB assay. […] The reactions were started by adding 1 mM DTNB to the mixture of 100 nM TrxR, 2 μM Trx, 240 μM NADPH, and different concentration of inhibitor (1-40 μM). […] The reactions were started by adding 6 nM TrxR at room temperature. Inhibition constants (Ki) for all the compounds were measured from Dixon plot, which plots 1/v versus […], I=Inhibitor concentration).

Gor DHB4 E. coli = test: Inhibition of bacterial growth (MIC), Gor DHB4 E. coli; details: Escherichia coli, DHB4E.COLI, read-out: MIC for Gor DHB4 E. coli
Text: (§1) Here E. coli DHB4 strains wt, gshA^−, gor^−, oxyR^− were used as the model to test the antibiotics activity of these ebselen derivatives.

wild type DHB4 E. coli = test: Inhibition of bacterial growth (MIC), wild type DHB4 E. coli; details: Escherichia coli, DHB4E.COLI, read-out: MIC for wild type DHB4 E. coli
Text: as §1

[2] = target: E. coli ribonucleotide reductase (Escherichia coli, UniProt P00452); test: Inhibition of E. coli ribonucleotide reductase; assay type: biochemical; details: data not shown
Chain of E. coli ribonucleotide reductase (P00452 whole entry): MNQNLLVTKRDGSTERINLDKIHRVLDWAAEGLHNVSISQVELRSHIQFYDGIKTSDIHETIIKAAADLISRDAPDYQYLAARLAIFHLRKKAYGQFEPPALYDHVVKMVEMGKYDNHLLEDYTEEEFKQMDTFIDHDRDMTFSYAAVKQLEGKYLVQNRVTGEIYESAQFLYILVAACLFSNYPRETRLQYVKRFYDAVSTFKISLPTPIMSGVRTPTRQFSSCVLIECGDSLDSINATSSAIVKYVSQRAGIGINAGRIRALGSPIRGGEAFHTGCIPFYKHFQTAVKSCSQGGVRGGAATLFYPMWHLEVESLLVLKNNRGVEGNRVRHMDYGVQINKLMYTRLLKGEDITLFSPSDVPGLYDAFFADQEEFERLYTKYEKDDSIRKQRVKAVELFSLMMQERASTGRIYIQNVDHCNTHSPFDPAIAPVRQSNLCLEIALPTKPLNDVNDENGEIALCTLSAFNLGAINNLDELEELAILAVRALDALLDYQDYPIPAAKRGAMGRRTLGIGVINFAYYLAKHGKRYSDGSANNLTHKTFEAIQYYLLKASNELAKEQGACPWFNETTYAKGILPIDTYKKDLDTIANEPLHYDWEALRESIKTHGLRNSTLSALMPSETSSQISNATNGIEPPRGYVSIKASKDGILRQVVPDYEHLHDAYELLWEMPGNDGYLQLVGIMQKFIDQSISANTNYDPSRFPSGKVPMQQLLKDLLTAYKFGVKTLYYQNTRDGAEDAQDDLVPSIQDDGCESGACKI

E. coli = assay type: cell-based, Escherichia coli; details: 2, 4, 8 μM, LB medium, 16 h
wild type (wt) E. coli = test: Growth of wild type E. coli culture treated 1 h with silver and ebselen; details: with 5 μM silver
Method: (§2) The absorbance at 600 nm were measured to detect the growth of the bacteria.
(§3) E. coli strains were cultured until the OD600 got around to 0.4, and then the bacteria were treated with 5 μM silver and different concentrations of ebselen (2, 5, 10 μM).

gshA^− DHB4 E. coli = test: Inhibition of bacterial growth (MIC), gshA^− DHB4 E. coli
Text: as §1

[3] = test system: Mycobacterium tuberculosis; test: Sensitivity of Mycobacterium tuberculosis to ebselen, radiometric BACTEC 460 system; assay type: cell-based; details: medium with 5 g/l albumin, estimate
[4] = Glutathione peroxidase (GPx) activity of the compounds; assay type: biochemical; details: relative; EbSe 6 = 1
HeLa cells = details: 24 h
Method: RAW 264.7, J774, HEK 293T, Hela cells were cultured in DMEM medium (GIBCO) supplemented with 10% FCS, 100 units/ml penicillin, and 100 μg/ml streptomycin at 37° C. in a 5% CO2 incubator. The cells were seeded in 96 micro-well plates and grown till 70-80% confluency. The cells were treated with different combination of ebselen and silver for 24 h. The cell toxicity was detected by MTT assay (15). Data are means±SD of three independent experiments.
To check whether there are synergistic toxic effects on mammalian cells, the toxicity of combination of ebselen and silver towards HeLa cells was studied. […] Nearly confluent HeLa cells were treated with combination of indicating concentration of ebselen and its analogues and silver for 24 h. then the cell toxicity was detected by MTT assay.

E. coli TrxR [5] = target: T1, E. coli TrxR; test: TrxR activity in bacterial cell lysates, insulin coupled reduction endpoint assay; assay type: cell-based; details: 5 μM silver and 2, 5, 10 μM ebselen, 1 h
Method: The reaction continued for 30 min. […] A sample without E. coli Trx was used as the background control.

Mammalian TrxR = target: T2, Mammalian TrxR (Homo sapiens, UniProt Q16881); details: from ref (3) / (32); cited from earlier work
T2 sequence (Q16881 151-649 limits assumed): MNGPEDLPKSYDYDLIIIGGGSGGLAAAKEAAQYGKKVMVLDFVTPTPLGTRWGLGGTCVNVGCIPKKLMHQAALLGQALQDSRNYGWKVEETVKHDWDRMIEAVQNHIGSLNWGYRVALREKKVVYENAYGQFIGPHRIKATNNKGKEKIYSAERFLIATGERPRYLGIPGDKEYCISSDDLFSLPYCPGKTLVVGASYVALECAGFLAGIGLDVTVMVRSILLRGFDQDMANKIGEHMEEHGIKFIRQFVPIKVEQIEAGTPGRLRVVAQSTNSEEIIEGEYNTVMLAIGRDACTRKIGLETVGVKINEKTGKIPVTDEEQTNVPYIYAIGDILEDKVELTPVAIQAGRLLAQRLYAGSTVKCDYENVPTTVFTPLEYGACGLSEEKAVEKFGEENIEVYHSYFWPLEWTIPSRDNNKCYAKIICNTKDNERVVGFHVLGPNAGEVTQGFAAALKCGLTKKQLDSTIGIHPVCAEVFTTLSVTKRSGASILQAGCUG

Staphylococcus aureus = details: cited from earlier work
GSH = GSH amount in bacterial cell lysates; details: wt E. coli, 5 μM silver and 10 μM ebselen, 1 h
Method: To analyze the TrxR activity and GSH amount in the bacteria, the cells were harvested by centrifugation and washed with PBS, then the cells were resuspended in TE buffer (50 mM Tris-HCl, pH 7.5, 1 mM EDTA) containing protease inhibitor cocktail and lysed by sonication. The cell lysates were obtained by centrifugation at 13,000 rpm for 30 min and the protein concentration were measured by Lowry protein assay (Bio-Rad DC).
To measure GSH levels, 10 μg of the cell lysates was added in the solution containing 50 nM GR, 50 mM Tris-HCl, pH 7.5, 200 μM NADPH, 1 mM EDTA, 1 mM DTNB. The absorbance at 412 nm was measured for 5 min.
GSH amounts were measured as the description in material and methods.

recombinant rat TrxR = target: T3, recombinant rat TrxR (Rattus norvegicus, UniProt O89049); test: Inhibition of mammalian (recombinant rat) TrxR
T3 sequence (O89049 1-499): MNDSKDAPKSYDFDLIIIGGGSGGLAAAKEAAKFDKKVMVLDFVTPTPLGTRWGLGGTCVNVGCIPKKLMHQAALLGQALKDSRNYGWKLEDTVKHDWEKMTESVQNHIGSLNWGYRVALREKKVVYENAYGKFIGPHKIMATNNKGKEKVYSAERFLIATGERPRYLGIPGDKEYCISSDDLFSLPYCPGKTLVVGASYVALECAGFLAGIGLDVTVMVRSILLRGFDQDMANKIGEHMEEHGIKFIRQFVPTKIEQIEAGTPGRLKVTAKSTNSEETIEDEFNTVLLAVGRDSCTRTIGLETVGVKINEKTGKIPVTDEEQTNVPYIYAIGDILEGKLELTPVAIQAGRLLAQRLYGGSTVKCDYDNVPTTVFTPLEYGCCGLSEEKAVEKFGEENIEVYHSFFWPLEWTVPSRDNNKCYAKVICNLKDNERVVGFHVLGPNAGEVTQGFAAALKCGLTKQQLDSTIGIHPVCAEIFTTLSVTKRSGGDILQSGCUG

E. coli TrxR [6] = target: T1, E. coli TrxR; test: E. coli TrxR inhibition, thioredoxin dependent DTNB reduction assay; assay type: biochemical; details: Lineweaver-Burk plots, reduction of DTNB; listed as ebselen; read-out: Ki (dissociation constant of inhibitor-TrxR complex), competitive inhibition of E. coli TrxR
E. coli NHHJ = details: cited from earlier work
H. pylori strains = test: MIC against H. pylori strains; details: Helicobacter pylori
E. coli gshA^− strain = details: with 5 μM silver, 1 h
Method: as §2, §3

HEK 293T cells = HEK 293T cells growth (cytotoxicity); assay type: cell-based; details: Homo sapiens, HEK-293T; read-out: IG50 for HEK 293T
Bacillus subtilis = test: Growth inhibition of Bacillus subtilis by ebselen and silver, A600
Method: Bacterial growth was determined as A600 after 16 h at 37° C.

E. coli Trx-(SH)2 = E. coli Trx-(SH)2 (Escherichia coli, UniProt P0AA25); details: fluorescence spectroscopy, ref (32); cited from earlier work
Chain of E. coli Trx-(SH)2 (P0AA25 whole entry): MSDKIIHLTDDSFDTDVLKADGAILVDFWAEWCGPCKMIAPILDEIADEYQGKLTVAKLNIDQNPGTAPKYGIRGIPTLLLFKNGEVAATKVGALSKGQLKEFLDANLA

O=c1c2ccccc2[se]n1-c1ccccc1 [EbSe 6, 2-phenyl-1,2-benzisoselenazol-3(2H)-one]
MBC (Helicobacter pylori; macrolide resistant strains): 12.5 µg/mL (≈ 45.6 µM)
MBC (Helicobacter pylori; two macrolide sensitive strains): 3.12 µg/mL (≈ 11.4 µM)
inhibition of E. coli TrxR (in words) (E. coli TrxR [1]): strongly inhibited
IC50 (E. coli TrxR [1]; DTNB assay, 100 nM TrxR, 2 μM Trx, 240 μM NADPH, 1 mM DTNB, read-out: IC50 for E. coli TrxR): 6 µM
Ki (E. coli TrxR [1]; Dixon plot, 6 nM TrxR, Trx 1, 2 or 4 μM, read-out: Ki for E. coli TrxR): 0.3 µM
MIC (Gor DHB4 E. coli): 15 µM (≈ 4.11 µg/mL)
MIC (wild type DHB4 E. coli): 40 µM (≈ 11 µg/mL)
inhibition of E. coli ribonucleotide reductase [2]: effective direct inhibitor
effect of ebselen alone on bacterial growth (E. coli): did not show the inhibition effects
ebselen concentration that inhibited growth (wild type (wt) E. coli): 10 µM
sensitivity of gshA^− / gor^− strains compared with wild type (gshA^− DHB4 E. coli; E. coli strains wt, gshA^−, gor^−): Wild type bacteria were more resistant than gor^− and gshA^− strains
MIC (gshA^− DHB4 E. coli; Escherichia coli, read-out: MIC for gshA^− DHB4 E. coli): 26 µM (≈ 7.13 µg/mL)
MIC [3]: < 20 µg/mL
Relative GPx activity [4]: 1
synergistic toxicity with silver (HeLa cells; 5 μM): did not show synergistic of toxicity
synergistic toxicity with silver (HeLa cells; 20 μM, silver at high concentration): enhanced the toxicity of silver
TrxR activity in bacterial lysates (E. coli TrxR [5]): not affected
Km (Mammalian TrxR): 2.5 µM
kcat, mammalian TrxR (Mammalian TrxR): 9.8 s⁻¹
concentration inhibiting growth (Staphylococcus aureus; Staphylococcus aureus 209P): 0.20 µg/mL
MIC for 90% of S. aureus strains (Staphylococcus aureus): 1.56 μg per ml
mode of action on S. aureus (Staphylococcus aureus): bacteriocidal
sensitivity of Staphyloccus aureus relative to E. coli (Staphylococcus aureus): 100 fold
concentration inhibiting growth (Staphylococcus aureus; methicillin resistant Staphylococcus aureus): 0.20 μg per ml
GSH amount in cell lysate (GSH): obviously lower than the others
IC50 (recombinant rat TrxR): > 10 µM
inhibition of mammalian TrxR (in words) (recombinant rat TrxR): no inhibitory activity
Ki (E. coli TrxR [6]): 0.15 µM and 0.14 µM
concentration required to inhibit growth (E. coli NHHJ): up to 50 μg per ml
MIC (H. pylori strains): 3.13 µg/mL (≈ 11.4 µM)
MIC (H. pylori strains; NCTC11637): 3.13 µg/mL (≈ 11.4 µM)
ebselen concentration that inhibited growth (E. coli gshA^− strain): 2 µM
IC50 (HEK 293T cells): 120 µM
effect on growth of B. subtilis (Bacillus subtilis; ebselen at 2 μM alone): did not inhibit the growth
effect on antibacterial activity of silver (Bacillus subtilis; ebselen at 2 μM with silver): strongly helped the antibacterial activity of silver
second-order rate constant of direct reduction by reduced E. coli Trx (E. coli Trx-(SH)2): 2e+07 M⁻¹ s⁻¹
